Data taken from patent publication US9987259B2 (priority 2011, dated 2018).

Biological target: human α7 nAChR (Homo sapiens (Human), UniProt P36544)
Assay: cell-based
Settings: not given

human α7 nAChR, sequence (P36544 23-502 limits assumed): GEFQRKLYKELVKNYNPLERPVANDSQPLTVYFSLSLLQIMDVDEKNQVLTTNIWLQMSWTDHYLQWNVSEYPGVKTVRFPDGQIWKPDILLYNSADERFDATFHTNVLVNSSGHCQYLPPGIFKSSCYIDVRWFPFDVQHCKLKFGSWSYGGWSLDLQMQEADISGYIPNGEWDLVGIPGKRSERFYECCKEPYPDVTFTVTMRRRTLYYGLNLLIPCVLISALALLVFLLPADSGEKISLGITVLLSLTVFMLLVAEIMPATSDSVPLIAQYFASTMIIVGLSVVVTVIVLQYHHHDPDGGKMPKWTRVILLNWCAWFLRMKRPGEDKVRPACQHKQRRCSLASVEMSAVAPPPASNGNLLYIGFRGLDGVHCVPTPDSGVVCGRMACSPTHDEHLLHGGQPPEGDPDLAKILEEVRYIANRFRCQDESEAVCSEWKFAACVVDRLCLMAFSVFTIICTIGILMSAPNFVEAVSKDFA

SMILES | EC50
O=C(NC1CN2CCC1CC2)c1ccc(=O)n(-c2nccs2)c1 (centres unmarked) [Example 1, N-(1-azabicyclo[2.2.2]octan-3-yl)-6-oxo-1-(2-thiazolyl)-3-pyridinecarboxamide] | 100 to 500 nM
O=C(N[C@H]1CN2CCC1CC2)c1ccc(=O)n(-c2ncc(Cl)s2)c1 [Example 27, N-[(3R)-1-azabicyclo[2.2.2]octan-3-yl]-1-(5-chloro-2-thiazolyl)-6-oxo-3-pyridinecarboxamide] | 100 to 500 nM
O=C(NC1CN2CCC1CC2)c1ccc(=O)n(-c2nc3ccccc3s2)c1 (centres unmarked) [Example 33, N-(1-azabicyclo[2.2.2]octan-3-yl)-1-(1,3-benzothiazole-2-yl)-6-oxo-3-pyridinecarboxamide] | 100 to 500 nM
CC(C)(C)c1cnc(-n2cc(C(=O)NC3CN4CCC3CC4)ccc2=O)s1 (centres unmarked) [Example 20, N-(1-azabicyclo[2.2.2]octan-3-yl)-1-(5-tert-butyl-2-thiazolyl)-6-oxo-3-pyridinecarboxamide] | 100 to 500 nM
O=C(N[C@H]1CN2CCC1CC2)c1ccc(=O)n(-c2nccs2)c1 [Example 2, N-[(3R)-1-azabicyclo[2.2.2]octan-3-yl)-6-oxo-1-(2-thiazolyl)-3-pyridinecarboxamide] | 100 to 500 nM
CCc1cnc(-n2cc(C(=O)N[C@@H]3CN4CCC3CC4)ccc2=O)s1 [Example 15, N-[(3S)-1-azabicyclo[2.2.2]octan-3-yl]-1-(5-ethyl-2-thiazolyl)-6-oxo-3-pyridinecarboxamide] | 100 to 500 nM
CC(C)c1cnc(-n2cc(C(=O)NC3CN4CCC3CC4)ccc2=O)s1 (centres unmarked) [Example 17, N-(1-azabicyclo[2.2.2]octan-3-yl)-6-oxo-1-(5-propan-2-yl-2-thiazolyl)-3-pyridinecarboxamide] | 100 to 500 nM
Cc1cnc(-n2cc(C(=O)N[C@@H]3CN4CCC3CC4)ccc2=O)s1 [Example 12, N-[(3S)-1-azabicyclo[2.2.2]octan-3-yl]-1-(5-methyl-2-thiazolyl)-6-oxo-3-pyridinecarboxamide] | 500 to 1000 nM
O=C(NC1CN2CCC1CC2)c1ccc(=O)n(-c2ncc(-c3ccccc3)s2)c1 (centres unmarked) [Example 25, N-(1-azabicyclo[2.2.2]octan-3-yl)-1-(5-phenyl-2-thiazolyl)-6-oxo-3-pyridinecarboxamide] | 500 to 1000 nM
CCCc1cnc(-n2cc(C(=O)NC3CN4CCC3CC4)ccc2=O)s1 (centres unmarked) [Example 16, N-(1-azabicyclo[2.2.2]octan-3-yl)-6-oxo-1-(5-propyl-2-thiazolyl)-3-pyridinecarboxamide] | 100 to 500 nM
CCc1cnc(-n2cc(C(=O)NC3CN4CCC3CC4)ccc2=O)s1 (centres unmarked) [Example 13, N-(1-azabicyclo[2.2.2]octan-3-yl)-1-(5-ethyl-2-thiazolyl)-6-oxo-3-pyridinecarboxamide] | 100 to 500 nM
O=C(N[C@@H]1CN2CCC1CC2)c1ccc(=O)n(-c2nccs2)c1 [Example 3, N-[(3S)-1-azabicyclo[2.2.2]octan-3-yl)-6-oxo-1-(2-thiazolyl)-3-pyridinecarboxamide] | 100 to 500 nM
CC(C)(C)c1cnc(-n2cc(C(=O)N[C@@H]3CN4CCC3CC4)ccc2=O)s1 [Example 22, N-[(3S)-1-azabicyclo[2.2.2]octan-3-yl]-1-[5-tert-butyl-2-thiazolyl]-6-oxo-3-pyridinecarboxamide] | 500 to 1000 nM
CC(C)(C)c1cnc(-n2cc(C(=O)N[C@H]3CN4CCC3CC4)ccc2=O)s1 [Example 21, N-[(3R)-1-azabicyclo[2.2.2]octan-3-yl]-1-[5-tert-butyl-2-thiazolyl]-6-oxo-3-pyridinecarboxamide] | 100 to 500 nM
O=C(NC1CN2CCC1CC2)c1ccc(=O)n(-c2ccc(-c3ccccc3)cn2)c1 (centres unmarked) [Example 7, N-(1-azabicyclo[2.2.2]octan-3-yl)-6-oxo-1-(5-phenyl-2-pyridine-1-yl)-3-pyridinecarboxamide] | 100 to 500 nM
Cc1cnc(-n2cc(C(=O)NC3CN4CCC3CC4)ccc2=O)s1 (centres unmarked) [Example 10, N-(1-azabicyclo[2.2.2]octan-3-yl)-1-(5-methyl-2-thiazolyl)-6-oxo-3-pyridinecarboxamide] | 100 to 500 nM
O=C(NC1CN2CCC1CC2)c1ccc(=O)n(-c2ncc(Cc3ccccc3)s2)c1 (centres unmarked) [Example 29] | 100 to 500 nM
O=C(NC1CN2CCC1CC2)c1ccc(=O)n(-c2ncc(C3CCCC3)s2)c1 (centres unmarked) [Example 23, N-(1-azabicyclo[2.2.2]octan-3-yl)-1-(5-cyclopentyl-2-thiazolyl)-6-oxo-3-pyridinecarboxamide] | 100 to 500 nM
CC(C)c1cnc(-n2cc(C(=O)N[C@@H]3CN4CCC3CC4)ccc2=O)s1 [Example 19, N-[(3S)-1-azabicyclo[2.2.2]octan-3-yl)-6-oxo-1-(5-propan-2-yl-2-thiazolyl)-3-pyridinecarboxamide] | 100 to 500 nM
O=C(NC1CN2CCC1CC2)c1ccc(=O)n(-c2ncc(C3CCCCC3)s2)c1 (centres unmarked) [Example 24, N-(1-azabicyclo[2.2.2]octan-3-yl)-1-(5-cyclohexyl-2-thiazolyl)-6-oxo-3-pyridinecarboxamide] | 100 to 500 nM

Same assay, conditions: HEK293T/17 cells transfected with human α7 nAChR and RIC3; with PNU-120596; fluorescence relative to 1 μM epibatidine; read-out: EC50 of human α7 nAChR

SMILES | EC50
O=C(NC1CN2CCC1CC2)c1ccc(=O)n(-c2ncc(Cl)s2)c1 (centres unmarked) [Example 26, N-(1-azabicyclo[2.2.2]octan-3-yl)-1-(5-chloro-2-thiazolyl)-6-oxo-3-pyridinecarboxamide] | < 100 nM
CC(C)c1cnc(-n2cc(C(=O)N[C@H]3CN4CCC3CC4)ccc2=O)s1 [Example 18, N-[(3R)-1-azabicyclo[2.2.2]octan-3-yl)-6-oxo-1-(5-propan-2-yl-2-thiazolyl)-3-pyridinecarboxamide] | < 100 nM
Cc1csc(-n2cc(C(=O)NC3CN4CCC3CC4)ccc2=O)n1 (centres unmarked) [Example 30, N-(1-azabicyclo[2.2.2]octan-3-yl)-1-(4-methyl-2-thiazolyl)-6-oxo-3-pyridinecarboxamide] | > 1000 nM
O=C(N[C@@H]1CN2CCC1CC2)c1ccc(=O)n(-c2ncc(Cl)s2)c1 [Example 28, N-[(3S)-1-azabicyclo[2.2.2]octan-3-yl]-1-(5-chloro-2-thiazolyl)-6-oxo-3-pyridinecarboxamide] | > 1000 nM
Cc1cnc(-n2cc(C(=O)N[C@H]3CN4CCC3CC4)ccc2=O)s1 [Example 11, N-[(3R)-1-azabicyclo[2.2.2]octan-3-yl]-1-(5-methyl-2-thiazolyl)-6-oxo-3-pyridinecarboxamide] | < 100 nM
Cc1nnc(-n2cc(C(=O)NC3CN4CCC3CC4)ccc2=O)s1 (centres unmarked) [Example 42, N-(1-azabicyclo[2.2.2]octan-3-yl)-1-[5-methyl-1,3,4-thiadiazole-2-yl)-6-oxo-3-pyridinecarboxamide] | > 1000 nM
CCc1cnc(-n2cc(C(=O)N[C@H]3CN4CCC3CC4)ccc2=O)s1 [Example 14, N-[(3R)-1-azabicyclo[2.2.2]octan-3-yl]-1-(5-ethyl-2-thiazolyl)-6-oxo-3-pyridinecarboxamide] | < 100 nM
O=C(NC1CN2CCC1CC2)c1ccc(=O)n(-c2ccc(Cl)cn2)c1 (centres unmarked) [Example 6, N-(1-azabicyclo[2.2.2]octan-3-yl)-1-(5-chloro-2-pyridinyl)-6-oxo-3-pyridinecarboxamide] | > 1000 nM
O=C(NC1CN2CCC1CC2)c1ccc(=O)n(-c2cc(-c3ccccc3)no2)c1 (centres unmarked) [Example 9, N-(1-azabicyclo[2.2.2]octan-3-yl)-6-oxo-1-[3-phenyl-5-isoxazolyl)-3-pyridinecarboxamide] | > 1000 nM
